Data published in ChEMBL document CHEMBL5329199, “Discovery of novel dual Bruton's tyrosine kinase (BTK) and Janus kinase 3 (JAK3) inhibitors as a promising strategy for rheumatoid arthritis” (Bioorg Med Chem, 2023).

How the values were obtained:
[1] = target: T1, Tyrosine-protein kinase JAK3 (Homo sapiens, UniProt P52333); assay: Inhibition of JAK3 (unknown origin) preincubated for 10 mins followed by kinase substrate and ATP addition and measured for 30 mins by mobility shift assay
T1 sequence (P52333 whole entry): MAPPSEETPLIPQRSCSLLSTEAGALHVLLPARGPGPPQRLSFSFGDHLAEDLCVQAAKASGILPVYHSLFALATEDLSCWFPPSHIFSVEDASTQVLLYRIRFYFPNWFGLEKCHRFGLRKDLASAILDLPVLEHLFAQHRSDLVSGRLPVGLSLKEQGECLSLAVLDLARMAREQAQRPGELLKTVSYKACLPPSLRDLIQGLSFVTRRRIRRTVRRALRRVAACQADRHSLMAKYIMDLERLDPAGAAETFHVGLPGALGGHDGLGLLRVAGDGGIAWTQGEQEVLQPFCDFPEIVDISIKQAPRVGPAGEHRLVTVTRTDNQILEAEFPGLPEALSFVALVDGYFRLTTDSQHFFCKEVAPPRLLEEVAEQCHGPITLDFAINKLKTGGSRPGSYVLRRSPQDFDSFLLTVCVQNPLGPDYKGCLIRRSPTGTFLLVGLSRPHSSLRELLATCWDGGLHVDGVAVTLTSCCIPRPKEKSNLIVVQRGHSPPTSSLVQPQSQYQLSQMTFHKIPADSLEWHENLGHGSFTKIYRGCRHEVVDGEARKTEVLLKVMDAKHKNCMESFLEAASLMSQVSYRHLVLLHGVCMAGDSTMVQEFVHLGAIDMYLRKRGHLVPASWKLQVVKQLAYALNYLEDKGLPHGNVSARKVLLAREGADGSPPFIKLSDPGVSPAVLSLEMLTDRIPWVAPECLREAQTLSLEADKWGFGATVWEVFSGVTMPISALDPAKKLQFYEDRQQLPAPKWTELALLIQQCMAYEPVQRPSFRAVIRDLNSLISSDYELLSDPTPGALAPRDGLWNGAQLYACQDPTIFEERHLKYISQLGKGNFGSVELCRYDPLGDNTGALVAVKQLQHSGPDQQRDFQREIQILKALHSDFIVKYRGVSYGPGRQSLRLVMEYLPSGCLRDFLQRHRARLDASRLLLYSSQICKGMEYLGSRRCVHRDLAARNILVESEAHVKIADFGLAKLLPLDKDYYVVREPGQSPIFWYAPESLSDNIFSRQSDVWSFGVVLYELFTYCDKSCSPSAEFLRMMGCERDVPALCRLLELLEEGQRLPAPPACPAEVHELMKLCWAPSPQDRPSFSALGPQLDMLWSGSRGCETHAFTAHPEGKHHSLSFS

[2] = target: Tyrosine-protein kinase BTK (Homo sapiens, UniProt Q06187); assay: Inhibition of BTK (unknown origin) preincubated for 10 mins followed by kinase substrate and ATP addition and measured for 20 mins by mobility shift assay
Daudi = assay: Antiproliferative activity against human Daudi cells assessed as inhibition of cell growth incubated for 72 hrs by Cell Titer-Glo assay; format: functional, cell-based
[3] = Acute toxicity in po dosed ICR mouse assessed as minimum lethal dose measured for 7 days; format: organism-based; conditions: in vivo, 168 h, time 7 day
BaF3 = assay: Antiproliferative activity against mouse BaF3 cells expressing JAK3 mutant assessed as inhibition of cell growth incubated for 72 hrs by Cell Titer-Glo assay; format: functional, cell-based; conditions: BaF3, 72 h

Tyrosine-protein kinase BTK, sequence (Q06187 whole entry): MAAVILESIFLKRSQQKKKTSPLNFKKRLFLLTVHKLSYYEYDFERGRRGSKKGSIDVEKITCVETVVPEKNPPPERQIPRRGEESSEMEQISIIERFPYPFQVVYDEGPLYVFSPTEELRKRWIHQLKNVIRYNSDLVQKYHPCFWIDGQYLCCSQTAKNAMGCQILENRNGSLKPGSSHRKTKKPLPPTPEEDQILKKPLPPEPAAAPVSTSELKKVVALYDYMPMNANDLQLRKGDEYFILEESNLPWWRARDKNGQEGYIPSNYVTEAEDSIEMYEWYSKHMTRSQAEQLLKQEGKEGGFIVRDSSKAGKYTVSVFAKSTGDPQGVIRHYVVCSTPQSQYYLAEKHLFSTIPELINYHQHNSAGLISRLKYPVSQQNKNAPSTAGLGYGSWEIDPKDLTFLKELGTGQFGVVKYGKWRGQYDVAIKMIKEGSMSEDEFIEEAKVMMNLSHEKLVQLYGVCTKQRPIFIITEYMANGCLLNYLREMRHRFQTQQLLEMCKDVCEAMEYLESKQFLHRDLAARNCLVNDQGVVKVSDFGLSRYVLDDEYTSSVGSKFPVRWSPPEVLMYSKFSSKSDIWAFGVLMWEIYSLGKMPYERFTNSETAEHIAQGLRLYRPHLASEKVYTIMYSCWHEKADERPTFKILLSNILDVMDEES

## C=CC(=O)N1CCC[C@@H](n2nc(-c3ccc(NC(=O)C45CC6CC(CC(C6)C4)C5)c4c3OCO4)c3c(N)ncnc32)C1
[1]
  IC50: 0.5 µM
[2]
  IC50: 0.00594 µM

## C=CC(=O)N1CCC[C@@H](n2nc(-c3ccc(NC(=O)C45CCC(CC4)C5)c4c3OCO4)c3c(N)ncnc32)C1
[1]
  IC50: 0.5 µM
[2]
  IC50: 0.00148 µM

## C=CC(=O)N1CCC[C@@H](n2nc(-c3ccc(NC(=O)c4cc5ccccc5s4)c4c3OCO4)c3c(N)ncnc32)C1
[1]
  IC50: 0.019 µM
[2]
  IC50: 0.00042 µM

## C=CC(=O)N1CCC[C@@H](n2nc(-c3ccc(NC(=O)c4ccco4)c4c3OCO4)c3c(N)ncnc32)C1
[1]
  IC50: 0.192 µM
[2]
  IC50: 0.00148 µM

## C=CC(=O)N1CCC[C@@H](n2nc(-c3ccc(NC(=O)c4ccc[nH]4)c4c3OCO4)c3c(N)ncnc32)C1
[1]
  IC50: 0.1 µM
[2]
  IC50: 0.0024 µM

## CC#CC(=O)N1CCC[C@@H](n2nc(-c3ccc(NC(=O)c4ccccc4)c4c3OCO4)c3c(N)ncnc32)C1
[1]
  IC50: > 10 µM
[2]
  IC50: 0.024 µM

## C=CC(=O)N1CCC[C@@H](n2nc(-c3ccc(NC(=O)C4CCN(C)CC4)c4c3OCO4)c3c(N)ncnc32)C1
[1]
  IC50: > 10 µM
[2]
  IC50: 0.585 µM

## C=CC(=O)N1CCC[C@@H](n2nc(-c3ccc(NC(=O)c4ccc(C#N)cc4)c4c3OCO4)c3c(N)ncnc32)C1
[1]
  IC50: 0.372 µM
[2]
  IC50: 0.0029 µM

## C=CC(=O)N1CCC[C@@H](n2nc(-c3ccc(NC(=O)c4ccc(Cl)cc4)c4c3OCO4)c3c(N)ncnc32)C1
[1]
  IC50: 0.044 µM
[2]
  IC50: 0.0013 µM

## C=CC(=O)N1CCC[C@@H](n2nc(-c3ccc(NC(=O)c4ccc(OC)c(OC)c4)c4c3OCO4)c3c(N)ncnc32)C1
[1]
  IC50: 0.147 µM
[2]
  IC50: 0.0034 µM

## N#C/C(=C\C1CC1)C(=O)N1CCC[C@@H](n2nc(-c3ccc(NC(=O)c4ccccc4)c4c3OCO4)c3c(N)ncnc32)C1
[1]
  IC50: > 10 µM
[2]
  IC50: 0.003 µM

## C=CC(=O)N1CCC[C@@H](n2nc(-c3ccc(NC(=O)c4ccc(-c5ccccc5)cc4)c4c3OCO4)c3c(N)ncnc32)C1
[1]
  IC50: 0.12 µM
[2]
  IC50: 0.0021 µM

## C=CC(=O)Nc1cccc(Cn2nc(-c3ccc(NC(=O)c4ccccc4)c4c3OCO4)c3c(N)ncnc32)c1
[1]
  IC50: > 10 µM
[2]
  IC50: 0.029 µM

## C=CC(=O)N1CCC[C@@H](n2nc(-c3ccc(NC(=O)c4ccc(C(F)(F)F)cc4)c4c3OCO4)c3c(N)ncnc32)C1
[1]
  IC50: 0.051 µM
[2]
  IC50: 0.0018 µM

## C=CC(=O)N1CCC[C@@H](n2nc(-c3ccc(NC(=O)c4ccccc4N(C)C)c4c3OCO4)c3c(N)ncnc32)C1
[1]
  IC50: 0.122 µM
[2]
  IC50: 0.00349 µM

## C=CC(=O)N1CCC[C@@H](n2nc(-c3ccc(Oc4ccccc4)cc3)c3c(N)ncnc32)C1 [IBRUTINIB]
Daudi
  IC50: 0.656 µM
[3]
  MLD: 750 mg/kg
BaF3
  IC50: 1.43 µM
